By pIC50 is commonly meant the negative decadic logarithm of the IC50, by convention in mol/L. A higher pIC50 goes with a small IC50.

Molecules are shown by their SMILES. pIC50: −log10 of the molar value.

Sequence of RIPK2 (O43353 whole entry): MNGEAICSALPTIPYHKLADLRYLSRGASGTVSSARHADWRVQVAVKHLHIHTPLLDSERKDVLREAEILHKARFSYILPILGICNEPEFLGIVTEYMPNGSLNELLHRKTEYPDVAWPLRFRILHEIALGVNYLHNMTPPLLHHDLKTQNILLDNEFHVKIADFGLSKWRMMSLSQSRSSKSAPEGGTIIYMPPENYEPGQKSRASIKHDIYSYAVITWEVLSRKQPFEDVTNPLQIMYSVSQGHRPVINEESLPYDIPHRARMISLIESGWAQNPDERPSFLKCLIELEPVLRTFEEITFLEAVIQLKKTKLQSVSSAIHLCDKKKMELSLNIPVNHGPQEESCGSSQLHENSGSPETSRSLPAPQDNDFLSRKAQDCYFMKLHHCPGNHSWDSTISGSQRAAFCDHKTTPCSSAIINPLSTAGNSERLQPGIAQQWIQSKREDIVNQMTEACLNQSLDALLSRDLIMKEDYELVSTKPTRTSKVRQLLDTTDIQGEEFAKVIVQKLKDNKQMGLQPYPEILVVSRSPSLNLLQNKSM

This test concerns the target RIPK2 (Homo sapiens (Human), UniProt O43353). Put plainly: RIPK2 inhibition, ADP-Glo Kinase Assay. Type of test: biochemical. Particulars: 8His-RIPK2 FL enzyme 8 nM, ATP 5 μM, 15 minutes pre-incubation, 60 minutes at 37° C., luminescence. On the procedure: RIPK2 inhibition for compounds in Table 1 are shown in Table 3 and measured using the following method:
Materials: White, 384-well optiplates (cat.no. 6007290) were purchased from PerkinElmer. The V9103X ADP-Glo Kinase Assay Custom (including ultra-pure ATP) was purchased from Promega. 8His-RIPK2 FL was prepared in-house. All other materials were of highest grade commercially available.
Method: In a 384-well plate, test compound diluted in assay buffer (1% DMSO final) is mixed with 8His-RIPK2 FL enzyme (final concentration of 8 nM). After 15 minutes of pre-incubation at RT, ATP dissolved in assay buffer is added (final concentration 5 μM). The mixture is incubated for 60 minutes at 37° C. in a humidified incubator. Then, ADP Glo Reagent is added, followed by a 40 minute incubation at rt. Finally, Kinase Detection Reagent is added and the entire mixture is incubated for 40 min at RT. The luminescence signal is measured with an Envision reader to determine the amount of ADP produced. Assay buffer: 25 mM HEPES (4-(2-hydroxyethyl)-1-piperazinethanesulfonic acid), 0.1% BSA (bovine serum albumin), 10 mM MgCl2, 5 mM MnCl2, 50 mM KCl, 0.01% CHAPS (3-[(3-cholamidopropyl)dimethylammonio]-1-propanesulfonate), 10 μM Na3VO4, 1 mM DTT (dithiothreitol), pH 7.5 All plates contain wells with vehicle controls instead of compound (1% DMSO) as reference for the high signal (100% CTL (100% of control), high signal), and wells without enzyme as reference for low signal (0% CTL, low signal). The luminescent signal generated is proportional to the ADP produced and is correlated with enzyme activity. The analysis of the data is performed by the calculation of the percentage of ADP production in the presence of the test compound and RIPK2 as compared to the ADP production in the presence of RIPK2 plus 50 μM Gefitinib. (RLU (relative luminescence units) (sample)−RLU(low control))*100/(RLU(high value)−RLU(low control)) [RLU=relative luminescence units].
(In general: ADP-Glo turns the ADP formed in a reaction into a luminescent signal.)
With `COc1cncc(-n2cc(-c3cc(C(=O)NC4CC4)ccc3C)cn2)c1` [Example 28, N-cyclopropyl-3-[1-(5-methoxy-pyridin-3-yl)-1H-pyrazol-4-yl]-4-methylbenzamide], the pIC50 was 7.82. To `Cc1cc(F)c(C(=O)NC2CC2)cc1-c1cnn(-c2cncc(N[C@H]3CCN(C)C[C@H]3F)c2)c1` [Example 169] belongs 8.89; to `CC(=O)N1CC[C@H](Oc2cncc(-n3cc(-c4cc(C(=O)NC5CC5)ccc4C)cn3)c2)C1` [Example 129, 3-[1-(5-{[(3S)-1-acetylpyrrolidin-3-yl]oxy}pyridin-3-yl)-1H-pyrazol-4-yl]-N-cyclopropyl-4-methyl-benzamide], 7.36. The compound `Cc1ccc(C(=O)NC2CC2)cc1-c1cnn(-c2cncc([C@H]3CCC(=O)N3C)c2)c1` [Example 125, N-cyclopropyl-4-methyl-3-(1-{5-[(2R)-1-methyl-5-oxopyrrolidin-2-yl]pyridin-3-yl}-1H-pyrazol-4-yl)benzamide] had a negative logarithm of the IC50 (pIC50) of 6.89. This pIC50 lies 0.47 log units lower than the previous one.

`COCC(C)N1CCC(Nc2cncc(-n3cc(-c4cc(C(=O)NC5CC5)ccc4C)cn3)c2)CC1` (stereo not shown) [Example 156, N-cyclopropyl-3-[1-(5-{[1-(1-methoxypropan-2-yl)piperidin-4-yl]amino}pyridin-3-yl)-1H-pyrazol-4-yl]-4-methylbenzamide] had a pIC50 of 8.80. Compared with the last compound, the pIC50 is 1.91 log units higher. For the compound `Cc1ccc(C(=O)NC2CC2)cc1-c1cnn(-c2cncc(C(C)N3CCCCS3(=O)=O)c2)c1` (stereo not shown) [Example 136, N-cyclopropyl-3-(1-{5-[1-(1,1-dioxo-1λ^6,2-thiazinan-2-yl)ethyl]pyridin-3-yl}-1H-pyrazol-4-yl)-4-methyl-benzamide], the negative logarithm of the IC50 (pIC50) was 7.37. The result for `Cc1ccc(C(=O)NC2CC2)cc1-c1cnn(-c2cncc(NC3CCN(C(C)CO)CC3)c2)c1` (stereo not shown) [Example 157, N-cyclopropyl-3-[1-(5-{[1-(1-hydroxypropan-2-yl)piperidin-4-yl]amino}pyridin-3-yl)-1H-pyrazol-4-yl]-4-methylbenzamide] reads 8.72; that for `CC(=O)N1CCC(Nc2cncc(-n3cc(-c4cc(C(=O)NC5CC5)ccc4C)cn3)c2)CC1` [Example 63, 3-(1-{5-[(1-acetylpiperidin-4-yl)amino]pyridin-3-yl}-1H-pyrazol-4-yl)-N-cyclopropyl-4-methyl-benzamide], 8.72; that for `CC(=O)N1CCC(Oc2cncc(-n3cc(-c4cc(C(=O)NC5CC5)ccc4C)cn3)c2)CC1` [Example 149, 3-(1-{5-[(1-acelylpiperidin-4-yl)oxy]pyridin-3-yl}-1H-pyrazol-4-yl)-N-cyclopropyl-4-methyl-benzamide], 8.05. The result for `Cc1ccc(C(=O)NC2CC2)cc1-c1cnn(-c2cncc(NC3CCN(C4COC4)CC3)c2)c1` [Example 94, N-cyclopropyl-4-methyl-3-[1-(5-{[1-(oxetan-3-yl)piperidin-4-yl]amino}pyridin-3-yl)-1H-pyrazol-4-yl] benzamide] reads 9.09. To `Cc1ccc(C(=O)NC2CC2)cc1-c1cnn(-c2cncc(NCC3COCCO3)c2)c1` (stereo not shown) [Example 57, N-cyclopropyl-3-(1-{5-[(1,4-dioxan-2-ylmethyl)amino]pyridin-3-yl}-1H-pyrazol-4-yl)-4-methylbenzamide] belongs 8.35; to `Cc1ccc(C(=O)NC2CC2)cc1-c1cnn(-c2cncc(OCc3ccccc3)c2)c1` [Example 80, 3-{1-[5-(benzyloxy)pyridin-3-yl]-1H-pyrazol-4-yl}-N-cyclopropyl-4-methylbenzamide], 7.59.

With `Cc1ccc(C(=O)NC2CC2)cc1-c1cnn(-c2cncc(NC(=O)CF)c2)c1` [Example 116, N-cyclopropyl-3-{1-[5-(2-fluoroacetamido)pyridin-3-yl]-1H-pyrazol-4-yl}-4-methylbenzamide], the pIC50 was 8.14. Against the preceding compound, the pIC50 is 0.55 log units higher.

Regarding `COCCN1CCC(Nc2cncc(-n3cc(-c4cc(C(=O)NC5CC5)c(F)cc4C)cn3)c2)CC1` [Example 74, N-cyclopropyl-2-fluoro-5-[1-(5-{[1-(2-methoxyethyl)piperidin-4-yl]amino}pyridin-3-yl)-1H-pyrazol-4-yl]-4-methylbenzamide], the pIC50 was 9.00. In the case of `CNc1cncc(-n2cc(-c3cc(C(=O)NC4CC4)ccc3C)cn2)c1` [Example 141, N-cyclopropyl-4-methyl-3-{1-[5-(methylamino)pyridin-3-yl]-1H-pyrazol-4-yl}benzamide], the pIC50 was 8.59. Against the preceding compound, the pIC50 is 0.41 log units lower. The compound `Cc1ccc(C(=O)NC2CC2)cc1-c1cnn(-c2cncc(NC3CCN(C4CCC4)CC3)c2)c1` [Example 93, 3-(1-{5-[(1-cyclobutylpiperidin-4-yl)amino]pyridin-3-yl}-1H-pyrazol-4-yl)-N-cyclopropyl-4-methyl-benzamide] had a negative logarithm of the IC50 (pIC50) of 8.82. To `Cc1ccc(C(=O)NC2CC2)cc1-c1cnn(-c2cncc(NC3CCOCC3)c2)c1` [Example 78, N-cyclopropyl-4-methyl-3-(1-{5-[(oxan-4-yl)amino]pyridin-3-yl}-1H-pyrazol-4-yl)benzamide] belongs 8.89; to `Cc1cc(F)c(C(=O)NC2CC2)cc1-c1cnn(-c2cncc(N[C@@H]3CCN(C)CC3(F)F)c2)c1` (single isomer, unassigned) [Example 176], 8.82. As for `Cc1ccc(C(=O)NC2CC2)cc1-c1cnn(-c2cncc(N)c2)c1` [Example 106, 3-[1-(5-aminopyridin-3-yl)-1H-pyrazol-4-yl]-N-cyclopropyl-4-methylbenzamide], the negative logarithm of the IC50 (pIC50) is 8.15. This pIC50 lies 0.67 log units lower than the previous one. To `COC1CCC(N2CCC(Nc3cncc(-n4cc(-c5cc(C(=O)NC6CC6)ccc5C)cn4)c3)CC2)CC1` (stereo not shown) [Example 160, N-cyclopropyl-3-[1-(5-{[1-(4-methoxycyclohexyl)piperidin-4-yl]amino}pyridin-3-yl)-1H-pyrazol-4-yl]-4-methylbenzamide] belongs 8.96. Take `Cc1ccc(C(=O)NC2CC2)cc1-c1cnn(-c2cncc(OC3CCOCC3)c2)c1` [Example 96, N-cyclopropyl-4-methyl-3-{1-[5-(oxan-4-yloxy)pyridin-3-yl]-1H-pyrazol-4-yl}benzamide]: the pIC50 was 8.27. To `Cc1ccc(C(=O)NC2CC2)cc1-c1cnn(-c2cncc(S(C)(=O)=O)c2)c1` [Example 46, N-cyclopropyl-3-[1-(5-methanesulfonylpyridin-3-yl)-1H-pyrazol-4-yl]-4-methylbenzamide] belongs 6.72; to `COc1cncc(-n2cnc(-c3cc(C(=O)NC4CC4)c(F)cc3Cl)c2)c1` [Example 33, 4-chloro-N-cyclopropyl-2-fluoro-5-[1-(5-methoxypyridin-3-yl)-1H-imidazol-4-yl]benzamide], 8.13. To `Cc1cc(F)c(C(=O)NC2CC2)cc1-c1cnn(-c2cncc(C3CC3)c2)c1` [Example 105, N-cyclopropyl-5-[1-(5-cyclopropyl-pyridin-3-yl)-1H-pyrazol-4-yl]-2-fluoro-4-methylbenzamide] belongs 9.00. The result for `Cc1ccc(C(=O)NC2CC2)cc1-c1cnn(-c2cncc(NCCOC(C)(C)C)c2)c1` [Example 55, 3-[1-(5-{[2-(tert-butoxy)ethyl]amino}pyridin-3-yl)-1H-pyrazol-4-yl]-N-cyclopropyl-4-methylbenzamide] reads 8.01; that for `Cc1ccc(C(=O)NC2CC2)cc1-c1cnn(-c2cncc(OC3CC(CO)(CO)C3)c2)c1` [Example 152, 3-(1-{5-[3,3-bis(hydroxymethyl)cyclobutoxy]pyridin-3-yl}-1H-pyrazol-4-yl)-N-cyclopropyl-4-methylbenzamide], 8.38; that for `CNCc1cncc(-n2cc(-c3cc(C(=O)NC4CC4)ccc3C)cn2)c1` [Example 39, N-cyclopropyl-4-methyl-3-(1-{5-[(methylamino)methyl]pyridin-3-yl}-1H-pyrazol-4-yl)benzamide], 6.74. In the case of `Cc1ccc(C(=O)NC2CC2)cc1-c1cnn(-c2cncc(NC(=O)C3CC3)c2)c1` [Example 144, 3-[1-(5-cyclopropaneamidopyridin-3-yl)-1H-pyrazol-4-yl]-N-cyclo-propyl-4-methylbenzamide], the pIC50 is 8.54. This pIC50 lies 1.80 log units higher than the previous one. Take `Cc1ccc(C(=O)NC2CC2)cc1-c1cnn(-c2cncc(C3CC3)c2)c1` [Example 45, N-cyclopropyl-3-[1-(5-cyclopropyl-pyridin-3-yl)-1H-pyrazol-4-yl]-4-methylbenzamide]: the negative-log IC50 (pIC50) is 8.44. The pIC50 values of the last two compounds are within 0.2 log units of each other. `Cc1cc(F)c(C(=O)NC2CC2)cc1-c1cnn(-c2cncc(NC3CCN(C)CC3)c2)c1` [Example 77, N-cyclopropyl-2-fluoro-4-methyl-5-(1-{5-[(1-methylpiperidin-4-yl)amino]pyridin-3-yl}-1H-pyrazol-4-yl) benzamide] had a pIC50 of 8.96. The result for `COC1CCC(Nc2cncc(-n3cc(-c4cc(C(=O)NC5CC5)ccc4C)cn3)c2)C1` (stereo not shown) [Example 65, N-cyclopropyl-3-(1-{5-[(3-methoxycyclopentyl)amino]pyridin-3-yl}-1H-pyrazol-4-yl)-4-methyl-benzamide] reads 8.64.

These data come from patent US10138222B2, “Substituted benzamides as RIPK2 inhibitors” (Boehringer Ingelheim International GmbH, priority 2016, dated 2018).
